From patent US9447044B2, “Thioaryl derivatives as GPR120 agonists” (LG LIFE SCIENCES LTD., priority 2012, dated 2016) come the findings set out here.

For orientation: pEC50 means the negative decadic logarithm of the EC50, by convention in mol/L.

SMILES strings stand for the structures. pEC50: −log10 of the molar value.

The target of the first assay is T1, hGPR120 (Homo sapiens, UniProt Q5NUL3).
T1 construct: expressed in transfected cells; host or cells: CHO-K1
T1 sequence (Q5NUL3 1-361): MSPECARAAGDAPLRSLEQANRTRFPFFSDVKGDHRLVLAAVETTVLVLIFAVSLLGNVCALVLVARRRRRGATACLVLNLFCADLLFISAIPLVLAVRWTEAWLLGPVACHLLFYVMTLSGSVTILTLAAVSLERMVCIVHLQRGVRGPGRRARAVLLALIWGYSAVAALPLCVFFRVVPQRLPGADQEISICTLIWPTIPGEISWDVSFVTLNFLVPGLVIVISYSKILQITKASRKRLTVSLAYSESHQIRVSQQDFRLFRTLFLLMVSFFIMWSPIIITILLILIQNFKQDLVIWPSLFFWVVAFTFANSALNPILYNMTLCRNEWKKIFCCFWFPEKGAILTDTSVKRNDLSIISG
The experiment in a line: Measurement of activity of GPR120 agonist (cell-based assay), calcium fluorescence. Conditions: CHO-K1 cells expressing Ga16 and hGPR120; Calcium 5 dye fluorescence; activity class. In short, it runs like this: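 CHO-K1 cells co-expressing Gα16 and hGPR120, loaded with Calcium 5 dye for 1 h at 37° C, received serially diluted agonists (final 0.5% DMSO). Fluorescence (Ex 485/Em 525 nm) was expressed as relative percent over 0.1% DMSO-only wells; activity binned as A >20 μM, B 20–2 μM, C 2–0.2 μM, D <0.2 μM.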
Consider `O=C(O)C1CC1c1ccc(OCc2cccc(SC3CCCC3)n2)c(F)c1` (centres unmarked) [Example 85, 2-[4-(6-cyclopentylsulfanyl-pyridin-2-ylmethoxy)-3-fluoro-phenyl]-cyclopropane carboxylic acid], for which the pEC50 was above 6.70. `O=C(O)C1CC1c1ccc(OCc2cccc(SC3CCC3)n2)c(F)c1` (centres unmarked) [Example 86, 2-[4-(6-cyclobutylsulfanyl-pyridin-2-ylmethoxy)-3-fluoro-phenyl]-cyclopropane carboxylic acid]: the pEC50 is above 6.70. As to `CC(C)Sc1ncccc1COc1ccc(C2CC2C(=O)O)c(Cl)c1` (centres unmarked) [Example 89, 2-[2-chloro-4-(2-isopropylsulfanyl-pyridin-3-ylmethoxy)-phenyl]-cyclopropane carboxylic acid], the pEC50 is 5.70 to 6.70. Consider `O=C(O)C1CC1c1ccc(OCc2cccc(SC3CCC3)n2)cc1Cl` (centres unmarked) [Example 90], for which the pEC50 is above 6.70.

Consider `CC(Cc1ccc(OCc2cccnc2SCC2CC2)c(Cl)c1)C(=O)O` (centres unmarked) [Example 91, 3-[3-chloro-4-(2-cyclopropylmethylsulfanyl-pyridin-3-ylmethoxy)-phenyl]-2-methyl-propionic acid], for which the pEC50 is above 6.70. For `CCCSc1ncccc1COc1ccc(CC(C)C(=O)O)cc1Cl` (centres unmarked) [Example 92, 3-[3-chloro-4-(2-propylsulfanyl-pyridin-3-ylmethoxy)-phenyl]-2-methyl-propionic acid], the pEC50 was above 6.70.

As for `CC(C)Sc1cccc(COc2ccc(CC(C)C(=O)O)cc2Cl)n1` (centres unmarked) [Example 93, 3-[3-chloro-4-(6-isopropylsulfanyl-pyridin-2-ylmethoxy)-phenyl]-2-methyl-propionic acid], the pEC50 was above 6.70. Same read-out and setting: for `CC(Cc1ccc(OCc2cccc(SC3CCCC3)n2)c(Cl)c1)C(=O)O` (centres unmarked) [Example 94, 3-[3-chloro-4-(6-cyclopentylsulfanyl-pyridin-2-ylmethoxy)-phenyl]-2-methyl-propionic acid] the value was above 6.70; for `CC(Cc1ccc(OCc2cccc(SC3CCC3)n2)c(Cl)c1)C(=O)O` (centres unmarked) [Example 96, 3-[3-chloro-4-(6-cyclobutylsulfanyl-pyridin-2-ylmethoxy)-phenyl]-2-methyl-propionic acid], above 6.70; for `CC(C)Sc1ncccc1COc1ccc(C2CC2C(=O)O)cc1Cl` (centres unmarked) [Example 97, 2-[3-chloro-4-(2-isopropylsulfanyl-pyridin-3-ylmethoxy)-phenyl]-cyclopropane carboxylic acid], above 6.70. Regarding `O=C(O)C1CC1c1ccc(OCc2cccc(SCC3CC3)n2)c(Cl)c1` (centres unmarked) [Example 98, 2-[3-chloro-4-(6-cyclopropylmethylsulfanyl-pyridin-2-ylmethoxy)-phenyl]-cyclopropane carboxylic acid], the pEC50 was above 6.70. The same measure, in the same setting: for `CC(C)Sc1cccc(COc2ccc(C3CC3C(=O)O)cc2Cl)n1` (centres unmarked) [Example 99, 2-[3-chloro-4-(6-isopropylsulfanyl-pyridin-2-ylmethoxy)-phenyl]-cyclopropane carboxylic acid] the value was above 6.70; for `O=C(O)C1CC1c1ccc(OCc2cccc(SC3CCCC3)n2)c(Cl)c1` (centres unmarked) [Example 100, 2-[3-chloro-4-(6-cyclopentylsulfanyl-pyridin-2-ylmethoxy)-phenyl]-cyclopropane carboxylic acid], above 6.70; for `O=C(O)C1CC1c1ccc(OCc2cccnc2SC2CCCC2)c(Cl)c1` (centres unmarked) [Example 101, 2-[3-chloro-4-(2-cyclopentylsulfanyl-pyridin-3-ylmethoxy)-phenyl]-cyclopropane carboxylic acid], above 6.70. As for `O=C(O)C1CC1c1ccc(OCc2cccnc2SC2CCC2)c(Cl)c1` (centres unmarked) [Example 102, 2-[3-chloro-4-(2-cyclobutylsulfanyl-pyridin-3-ylmethoxy)-phenyl]-cyclopropane carboxylic acid], the pEC50 was above 6.70. As to `O=C(O)C1CC1c1ccc(OCc2cccc(SC3CCC3)n2)c(Cl)c1` (centres unmarked) [Example 103, 2-[3-chloro-4-(6-cyclobutylsulfanyl-pyridin-2-ylmethoxy)-phenyl]-cyclopropane carboxylic acid], the pEC50 is above 6.70. Turning to `O=C(O)C1CC1c1ccc(OCc2cccc(SC3CCCC3)n2)cc1Cl` (centres unmarked) [Example 104], the pEC50 was 5.70 to 6.70. As for `Cc1c(OCc2cccnc2SC(C)C)ccc(C2CC2C(=O)O)c1C` (centres unmarked) [Example 105, 2-[4-(2-isopropylsulfanyl-pyridin-3-ylmethoxy)-2,3-dimethyl-phenyl]-cyclopropane carboxylic acid], the pEC50 was 4.70 to 5.70. Same read-out and setting: for `Cc1c(OCc2cccnc2SCC2CC2)ccc(C2CC2C(=O)O)c1C` (centres unmarked) [Example 106, 2-[4-(2-cyclopropylmethylsulfanyl-pyridin-3-ylmethoxy)-2,3-dimethyl-phenyl]-cyclopropane carboxylic acid] the value was below 4.70. Turning to `O=C(O)C1CC1c1ccc(OCc2cccnc2SCC2CC2)c(Cl)c1` (centres unmarked) [Example 107, 2-[3-chloro-4-(2-cyclopropylmethylsulfanyl-pyridin-3-ylmethoxy)-phenyl]-cyclopropane carboxylic acid], the pEC50 was above 6.70. Take `CCCSc1ncccc1COc1ccc(C2CC2C(=O)O)cc1Cl` (centres unmarked) [Example 108, 2-[3-chloro-4-(2-propylsulfanyl-pyridin-3-ylmethoxy)-phenyl]-cyclopropane carboxylic acid]: the pEC50 was above 6.70. Turning to `COc1ccc(COc2ccc(C3CC3C(=O)O)cc2Cl)c(SC(C)C)n1` (centres unmarked) [Example 109, 2-[3-chloro-4-(2-isopropylsulfanyl-6-methoxy-pyridin-3-ylmethoxy)-phenyl]-cyclopropane carboxylic acid], the pEC50 was 5.70 to 6.70. As to `O=C(O)C1CC1Cc1cc(F)c(OCc2cccc(SC3CCCC3)n2)c(F)c1` (centres unmarked) [Example 110, 2-[4-(6-cyclopentylsulfanyl-pyridin-2-ylmethoxy)-3,5-difluoro-benzyl]-cyclopropane carboxylic acid], the pEC50 is 5.70 to 6.70. Consider `O=C(O)CC1COc2c1cc(F)c(OCc1cccnc1SC1CCC1)c2F` (centres unmarked) [Example 111, [6-(2-cyclobutylsulfanyl-pyridin-3-ylmethoxy)-5,7-difluoro-2,3-dihydro-benzofuran-3-yl]-acetic acid], for which the pEC50 was above 6.70. On to `CCCSc1ncccc1COc1ccc(C2CC2C(=O)O)c(C)c1C` (centres unmarked) [Example 112, 2-[2,3-dimethyl-4-(2-propylsulfanyl-pyridin-3-ylmethoxy)-phenyl]-cyclopropane carboxylic acid], for which the pEC50 is below 4.70. The same measure, in the same setting: for `Cc1c(OCc2cccnc2SC2CCC2)ccc(C2CC2C(=O)O)c1C` (centres unmarked) [Example 113, 2-[4-(2-cyclobutylsulfanyl-pyridin-3-ylmethoxy)-2,3-dimethyl-phenyl]-cyclopropane carboxylic acid] the value was below 4.70.

The same assay, now with this note: CHO-K1 cells expressing Ga16 and hGPR120; Calcium 5 dye fluorescence; numeric value.
For the compound `O=C(O)C1CC1c1ccc(OCc2cccnc2SC2CCCC2)c(F)c1` (centres unmarked) [Example 87, 2-[4-(2-cyclopentylsulfanyl-pyridin-3-ylmethoxy)-3-fluoro-phenyl]-cyclopropane carboxylic acid], the pEC50 was 4.19. Turning to `O=C(O)C1CC1c1ccc(OCc2cccnc2SC2CCC2)c(F)c1` (centres unmarked) [Example 88, 2-[4-(2-cyclobutylsulfanyl-pyridin-3-ylmethoxy)-3-fluoro-phenyl]-cyclopropane carboxylic acid], the pEC50 is 4.24.

Regarding `CC(Cc1ccc(OCc2cccnc2SC2CCC2)c(Cl)c1)C(=O)O` (centres unmarked) [Example 95, 3-[3-chloro-4-(2-cyclobutylsulfanyl-pyridin-3-ylmethoxy)-phenyl]-2-methyl-propionic acid], the pEC50 is 7.06.
